Values joined by “and” are separate entries in the source; they are usually repeats but may differ in a detail not shown here. Equal values may be shown once. Inconclusive results and toxic doses are left out. Rule as the data show it: active = T/C of 150% or more; inactive = T/C below 125%.
System: L1210 leukemia ip in BDF1 mice, survival T/C
Assay: NCI In Vivo Anticancer Drug Screen. Data for tumor model L1210 Leukemia (intraperitoneal) in B6D2F1 (BDF1) mice
Conditions: endpoint: mean survival time, higher = longer survival
Summary of the method: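 Survival endpoint. Drug-treated group vs vehicle group, expressed as T divided by C. Tumor passaged by transplantation.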

[1] = dose: 100.0 mg/kg/injection, schedule: Q01DX001 (ip), vehicle: saline with Tween-80
[2] = dose: 200.0 mg/kg/injection, schedule: Q01DX001 (ip), vehicle: saline with Tween-80
[3] = dose: 400.0 mg/kg/injection, schedule: Q01DX001 (ip), vehicle: saline with Tween-80
[4] = dose: 50.0 mg/kg/injection, schedule: Q01DX009 (ip), vehicle: saline
[5] = dose: 100.0 mg/kg/injection, schedule: Q04DX003 (ip), vehicle: saline
[6] = dose: 100.0 mg/kg/injection, schedule: Q01DX009 (ip), vehicle: Klucel (hydroxypropylcellulose) (HPC)
[7] = dose: 100.0 mg/kg/injection, schedule: Q04DX003 (ip), vehicle: Klucel (hydroxypropylcellulose) (HPC)
[8] = dose: 100.0 mg/kg/injection, schedule: Q01DX001 (ip), vehicle: saline
[9] = dose: 200.0 mg/kg/injection, schedule: Q01DX001 (ip), vehicle: saline
[10] = dose: 400.0 mg/kg/injection, schedule: Q01DX001 (ip), vehicle: saline
[11] = dose: 100.0 mg/kg/injection, schedule: Q04DX003 (ip), vehicle: saline with Tween-80
[12] = dose: 200.0 mg/kg/injection, schedule: Q04DX003 (ip), vehicle: saline with Tween-80
[13] = dose: 400.0 mg/kg/injection, schedule: Q04DX003 (ip), vehicle: saline with Tween-80
[14] = dose: 200.0 mg/kg/injection, schedule: Q01DX009 (ip), vehicle: Klucel (hydroxypropylcellulose) (HPC)
[15] = dose: 200.0 mg/kg/injection, schedule: Q04DX003 (ip), vehicle: Klucel (hydroxypropylcellulose) (HPC)
[16] = dose: 400.0 mg/kg/injection, schedule: Q01DX009 (ip), vehicle: Klucel (hydroxypropylcellulose) (HPC)
[17] = dose: 400.0 mg/kg/injection, schedule: Q04DX003 (ip), vehicle: Klucel (hydroxypropylcellulose) (HPC)
[18] = dose: 25.0 mg/kg/injection, schedule: Q04DX003 (ip), vehicle: saline
[19] = dose: 50.0 mg/kg/injection, schedule: Q04DX003 (ip), vehicle: saline

Measured: T/C

COC(=O)c1oc2cc(Cl)cnc2c1C(=O)OC
inactive: dose: 100.0 mg/kg/injection, schedule: Q04DX002 (ip), vehicle: saline with Tween-80 97 % of control | dose: 200.0 mg/kg/injection, schedule: Q04DX002 (ip), vehicle: saline with Tween-80 97 % of control | dose: 400.0 mg/kg/injection, schedule: Q04DX002 (ip), vehicle: saline with Tween-80 94 % of control

O=S1(=O)C=CCCC=C1
inactive: dose: 50.0 mg/kg/injection, schedule: Q04DX002 (ip), vehicle: Klucel (hydroxypropylcellulose) (HPC) 105 % of control | dose: 75.0 mg/kg/injection, schedule: Q04DX002 (ip), vehicle: Klucel (hydroxypropylcellulose) (HPC) 112 % of control

CC(C)(C)NC(=O)Oc1ccc2ccccc2c1
inactive: dose: 100.0 mg/kg/injection, schedule: Q01DX009 (ip), vehicle: other 96 % of control | dose: 200.0 mg/kg/injection, schedule: Q01DX009 (ip), vehicle: other 102 % of control | dose: 400.0 mg/kg/injection, schedule: Q01DX009 (ip), vehicle: other 100 % of control

CC(=O)NC1C(OCc2ccccc2)OC(CO)C(O)C1OCc1ccccc1 (stereo unspecified)
inactive: [1] 100 % of control | [2] 107 % of control | [3] 96 % of control

COc1cc2cc[n+](C)cc2cc1OC
inactive: [4] 111 % of control | dose: 100.0 mg/kg/injection, schedule: Q01DX009 (ip), vehicle: saline 108 % of control | [5] 104 % of control | dose: 200.0 mg/kg/injection, schedule: Q04DX003 (ip), vehicle: saline 107 % of control

CC[n+]1c(C)sc2cc3c(cc21)OCO3
inactive: dose: 25.0 mg/kg/injection, schedule: Q04DX003 (ip), vehicle: Klucel (hydroxypropylcellulose) (HPC) 102 % of control | dose: 50.0 mg/kg/injection, schedule: Q01DX009 (ip), vehicle: Klucel (hydroxypropylcellulose) (HPC) 103 % of control | dose: 50.0 mg/kg/injection, schedule: Q04DX003 (ip), vehicle: Klucel (hydroxypropylcellulose) (HPC) 107 % of control | [6] 96 % of control | [7] 105 % of control and 109 % of control

NCCC(=O)NO
inactive: [8] 98 % of control | [9] 88 % of control | [10] 106 % of control

CC(C)CCCC(C)C1CCC2C3CC4C(F)(F)C45CC4(CCC5(C)C3CCC12C)OCCO4 (stereo unspecified)
inactive: dose: 100.0 mg/kg/injection, schedule: Q04DX002 (ip), vehicle: other 101 % of control | dose: 200.0 mg/kg/injection, schedule: Q04DX002 (ip), vehicle: other 90 % of control | dose: 400.0 mg/kg/injection, schedule: Q04DX002 (ip), vehicle: other 93 % of control

O=c1cc(COc2ccccc2Cl)[nH]c(=O)[nH]1
inactive: [11] 95 % of control | [12] 95 % of control | [13] 95 % of control

CCOC(=O)CN1C(=O)NC(C)(c2ccc(Cl)cc2)C1=O (stereo unspecified)
inactive: [11] 106 % of control | [12] 98 % of control | [13] 96 % of control

CC(=O)c1ccc(OS(=O)(=O)c2ccc([N+](=O)[O-])cc2)cc1
inactive: [6] 90 % of control | [7] 94 % of control | [14] 90 % of control | [15] 94 % of control | [16] 86 % of control | [17] 89 % of control

S=c1nc[nH]c2cc[nH]c12
inactive: dose: 100.0 mg/kg/injection, schedule: Q01DX001 (ip), vehicle: other 95 % of control | dose: 200.0 mg/kg/injection, schedule: Q01DX001 (ip), vehicle: other 98 % of control | dose: 400.0 mg/kg/injection, schedule: Q01DX001 (ip), vehicle: other 101 % of control

C1CCN(CN2CCCC2)C1
inactive: dose: 25.0 mg/kg/injection, schedule: Q01DX001 (ip), vehicle: saline 96 % of control | dose: 25.0 mg/kg/injection, schedule: Q01DX009 (ip), vehicle: saline 92 % of control | [18] 98 % of control | dose: 50.0 mg/kg/injection, schedule: Q01DX001 (ip), vehicle: saline 94 % of control | [4] 92 % of control | [19] 105 % of control | [8] 97 % of control and 88 % of control | [5] 88 % of control

O=Nn1c2ccccc2c2ccccc21
inactive: dose: 100.0 mg/kg/injection, schedule: Q04DX003 (ip), vehicle: gum acacia 92 % of control | dose: 200.0 mg/kg/injection, schedule: Q04DX003 (ip), vehicle: gum acacia 95 % of control | dose: 400.0 mg/kg/injection, schedule: Q04DX003 (ip), vehicle: gum acacia 87 % of control

COC(=O)c1cc(=O)c2c(=O)[nH]c(=O)[nH]c2[nH]1
inactive: [7] 101 % of control | [15] 95 % of control | [17] 100 % of control

Cc1c(N=O)c(=O)n(-c2ccccc2)n1C
inactive: [6] 94 % of control | [7] 95 % of control | [14] 97 % of control | [15] 95 % of control | [16] 110 % of control | [17] 98 % of control

OCC(O)COc1ccc(Cl)cc1 (stereo unspecified)
inactive: [1] 98 % of control | dose: 100.0 mg/kg/injection, schedule: Q01DX009 (ip), vehicle: saline with Tween-80 100 % of control and 110 % of control | [11] 98 % of control and 100 % of control | [2] 105 % of control | dose: 200.0 mg/kg/injection, schedule: Q01DX009 (ip), vehicle: saline with Tween-80 96 % of control and 100 % of control | [12] 96 % of control and 103 % of control | [3] 88 % of control | dose: 400.0 mg/kg/injection, schedule: Q01DX009 (ip), vehicle: saline with Tween-80 94 % of control | [13] 100 % of control

CNCC1C=CCCC1 (stereo unspecified)
inactive: dose: 100.0 mg/kg/injection, schedule: Q04DX002 (ip), vehicle: saline 93 % of control | dose: 200.0 mg/kg/injection, schedule: Q04DX002 (ip), vehicle: saline 100 % of control

CC(=O)Nc1cc(C(=O)O)cc(NC(C)=O)c1C
inactive: [11] 103 % of control | [12] 98 % of control | [13] 101 % of control

CCCCCCCCCCCCCCCCCCSc1ccc2ccccc2c1
inactive: [7] 105 % of control | [15] 94 % of control | [17] 91 % of control

C/C(CCCCl)=N/N=C(N)N
inactive: dose: 12.5 mg/kg/injection, schedule: Q04DX003 (ip), vehicle: saline 100 % of control | dose: 18.75 mg/kg/injection, schedule: Q01DX009 (ip), vehicle: saline with Tween-80 96 % of control | [18] 110 % of control | dose: 37.5 mg/kg/injection, schedule: Q01DX009 (ip), vehicle: saline with Tween-80 90 % of control | [19] 103 % of control | dose: 75.0 mg/kg/injection, schedule: Q01DX009 (ip), vehicle: saline with Tween-80 94 % of control | dose: 75.0 mg/kg/injection, schedule: Q04DX003 (ip), vehicle: acetone 95 % of control | dose: 110.0 mg/kg/injection, schedule: Q01DX009 (ip), vehicle: saline with Tween-80 98 % of control

CCOC(=O)CC1(C)CCC2C1C(=O)OC2(C)C (stereo unspecified)
inactive: [8] 105 % of control | [9] 104 % of control | [10] 110 % of control

O=C(Nc1ccc(C2=NCCN2)cc1)c1ccc(N=Nc2ccc(C(=O)Nc3ccc(C4=NCCN4)cc3)cc2)cc1
inactive: dose: 125.0 mg/kg/injection, schedule: Q01DX Z (ip), vehicle: water 106 % of control | dose: 250.0 mg/kg/injection, schedule: Q01DX Z (ip), vehicle: water 107 % of control

— PubChem BioAssay AID248 (DTP/NCI, 2004)
